From patent US12178838B2, “Synthetic neuromodulatory peptides” (Lactocore, Inc., priority 2019, dated 2024)

Experiments:
Format in all cases: in vivo
zebrafish (Danio rerio) = assay: Light/dark box test in zebrafish; settings: ip
Experimental: The tested substances were injected into the zebrafish intraperitoneally (ip) using an insulin syringe (0.5 ml, 30 g) 10 minutes before the test. The saline solution (0.9% NaCl) was used as a solvent. Anesthesia and immobilization of the animals were achieved by placing them in water at a temperature of 10° C. Control group fish received intraperitoneal injections of an equivalent volume of solvent, also after going through a pre-cooling procedure.
A base, back, and side walls of the aquarium were made of matte black plastic; the front panel (shorter wall) was made of transparent Plexiglas. The setup for the Light/Dark preference test consisted of three main parts: a launch compartment, a light compartment made of white plastic, and a dark compartment made of black plastic. The bright lighting in these tests was provided by a lamp on a stand (LED lamp PL, 11 W, light flux≈600 Lm, about 500 Lx directly above the water surface), which was attached to the upper part of the aquarium.
The light/dark box (LDB) test was performed as described in Maximino et al., 2011. The zebrafish was placed in a light compartment of an LDB using a net, the camera was switched on simultaneously, and the behavior of the zebrafish was recorded for 5 minutes. The video was processed using RealTimer (OpenScience). During the processing of records, the residence time and the number of visits to the light and dark compartments of the test setup were recorded, as well as the latent period of visiting both compartments.

Sprague Dawley rats = settings: FQSE 0.5 mg/kg i.n.; diazepam 2 mg/kg IP
Experimental: The five doses of FQSE (SEQ ID NO:10) (0.01, 0.1, 0.5, 1 and 3 mg/kg, CS, Menlo Park, CA) were prepared fresh for each test day in sterile saline and administered intranasally (i.n.) 30 minutes prior to testing. Fifteen rats per group per peptide dose were tested with the exception that there were twenty rats in the vehicle (0) group. Each dose was administered in a randomized order across rats. Prior to dosing, the rats were lightly anesthetized (till loss of righting reflex) with isoflurane (2.5%, 0.5 L/min oxygen), placed in the recumbent position, then a thin plastic pipette (Fischer Scientific) inserted into the nares and peptide administered at a volume of 15-20 uL per nares. […]
Open field tests occurred in open field apparatus constructed of gray Plexiglas (17″L×17″ W×12″ H (43.2 cm×43.2 cm×30.5 cm; Noldus, Leesburg, VA) with digital cameras positioned above the arenas to detect different measures of activity using specialized software (Ethovision, XT12). Rats were first allowed to acclimate to the testing room for 30 minutes while in their home cage. The test was initiated by placing the animal in the center of the open field chamber and behavior recorded for 30 minutes. The observer was not in the room during testing. Testing was conducted under red-light. Arenas were cleaned thoroughly between subjects with LpH disinfectant. […]

[1] = test system: Wistar rats after chronic unpredictable mild stress; assay: CUMS model: Social Interaction test; settings: FQSE 0.5 mg/kg i.n.; diazepam 0.5 mg/kg i.p.; 4 injections; vs control non-stressed rats
Experimental: (§1) During stress, the animals were placed in individual cells and exposed to stressful conditions each day for 26 days. Two stressors were used daily, applied in the following order: • Day 1. 10 am-6 pm, rats were placed in a cold room for an hour. From 6 PM to 10 am the lights were turned on and off every 2 hours. • Day 2. 10 am-6 pm, cage tilted to 45°. From 6 PM to 10 am water deprivation. • Day 3. 10 am-6 pm, stroboscopic light. From 6 PM to 10 am the light was left on overnight. • Day 4. 10 am-6 pm, wet bedding. From 6 PM to 10 am the animals were put in a small mouse cage. • Day 5. 10 am-6 pm, no bedding. From 6 PM to 10 am the lights were turned on and off every 2 hours. • Day 6. 10 am-6 pm, a new rat was placed in the cage (6-month-old). From 6 PM to 10 am the light was left on overnight. • Day 7. 10 am-6 pm, white noise. From 6 PM to 10 am a stroboscopic light was turned on at night. • Day 8-26. Repetition of previously used stressors in the specified sequence.
Experimental substances were administered daily starting from the 58-59 day of the experiment. […]
To assess the social activity and depressive state of the animals, a test that evaluates a social interaction of rodents was used. […] Within 10 minutes the duration and number of social contacts with the juvenile male and number of threatening and aggressive contacts were recorded. […]

[2] = test system: Wistar rats after chronic unpredictable mild stress; assay: CUMS model: Porsolt forced swimming test; settings: FQSE 0.05 mg/kg i.n.; Diazepam 0.5 mg/kg i.p.; 18 injections
Experimental: as §1, with “sequence. […]” for “sequence.”
The forced swim test is a rodent behavioral test used for the evaluation of antidepressant drugs, antidepressant efficacy of new compounds, and experimental manipulations that are aimed at rendering or preventing depressive-like states. […] In the last 6 minutes, the duration of active (vigorous movement of all limbs) and passive (weak strokes of the hind limbs) swimming and immobility duration were recorded. […]

Compound: CN1C(=O)CN=C(c2ccccc2)c2cc(Cl)ccc21 [Diazepam]
- time spent in the light compartment (zebrafish (Danio rerio); diazepam 5 mg/kg, FQSE 10 mg/kg, WDQV 10 mg/kg): increased dramatically
- number of transitions between the light and dark compartments (zebrafish (Danio rerio); diazepam 10 mg/kg): increase
- time of the first exit (latent period) to the light chamber (zebrafish (Danio rerio); diazepam 10 mg/kg): decrease
- center zone entries (Sprague Dawley rats): 54.3±6.2
- total distance (Sprague Dawley rats): 5289±263 cm
- duration of social contacts [1]: significant decrease
- immobilization time [2]: did not differ
